Earlier results on 1 molecule are cited in US20220016128A1, “METHODS, SYSTEM, AND KIT FOR MONITORING, DIAGNOSING, AND TREATING IMPULSIVE AGGRESSION” (Supernus Pharmaceuticals, Inc., priority 2016, published 2022).

The conditions of data set [1]: acidic to slightly acidic media versus neutral to slightly alkaline pH (physiologic pH range of the gastro-intestinal tract).
For data set [2] the following is noted: oral dose.

Regarding `CCc1c(C)[nH]c2c1C(=O)C(CN1CCOCC1)CC2` (centres unmarked) [molindone, 3-Ethyl-6,7-dihydro-2-methyl-5-(morpholinomethyl)indol-4(5H)-one], the solubility result in data set [1] was “greater solubility in acidic to slightly acidic media than in neutral to slightly alkaline pH values”. Also, the plasma elimination half-life result in data set [2] was “about 2 hours”.
